US20080114007A1 (priority 2006, published 2008)

Molecular target: CSF-1R (Homo sapiens, UniProt P07333)
Experiment: Peptide (non-phosphorylated) assay, fluorescence polarization competition immunoassay
Assay type: biochemical
Conditions: 0.7 nM CSF-1R, 308 μM SYEGNSYTFIDPTQ peptide, 1 mM ATP, 80 min; mean of at least three determinations; read-out: c-fms Peptide IC50
Procedure, shortened: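 Human CSF-1R kinase reaction started with ATP and run 80 min at room temperature, then stopped with EDTA. Phosphopeptide detected by fluorescence polarization competition using anti-phosphotyrosine antibody and PTK green tracer after 30 min. Controls used 4% DMSO, with EDTA added before reaction start for positive controls.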

Sequence of CSF-1R (P07333 20-972): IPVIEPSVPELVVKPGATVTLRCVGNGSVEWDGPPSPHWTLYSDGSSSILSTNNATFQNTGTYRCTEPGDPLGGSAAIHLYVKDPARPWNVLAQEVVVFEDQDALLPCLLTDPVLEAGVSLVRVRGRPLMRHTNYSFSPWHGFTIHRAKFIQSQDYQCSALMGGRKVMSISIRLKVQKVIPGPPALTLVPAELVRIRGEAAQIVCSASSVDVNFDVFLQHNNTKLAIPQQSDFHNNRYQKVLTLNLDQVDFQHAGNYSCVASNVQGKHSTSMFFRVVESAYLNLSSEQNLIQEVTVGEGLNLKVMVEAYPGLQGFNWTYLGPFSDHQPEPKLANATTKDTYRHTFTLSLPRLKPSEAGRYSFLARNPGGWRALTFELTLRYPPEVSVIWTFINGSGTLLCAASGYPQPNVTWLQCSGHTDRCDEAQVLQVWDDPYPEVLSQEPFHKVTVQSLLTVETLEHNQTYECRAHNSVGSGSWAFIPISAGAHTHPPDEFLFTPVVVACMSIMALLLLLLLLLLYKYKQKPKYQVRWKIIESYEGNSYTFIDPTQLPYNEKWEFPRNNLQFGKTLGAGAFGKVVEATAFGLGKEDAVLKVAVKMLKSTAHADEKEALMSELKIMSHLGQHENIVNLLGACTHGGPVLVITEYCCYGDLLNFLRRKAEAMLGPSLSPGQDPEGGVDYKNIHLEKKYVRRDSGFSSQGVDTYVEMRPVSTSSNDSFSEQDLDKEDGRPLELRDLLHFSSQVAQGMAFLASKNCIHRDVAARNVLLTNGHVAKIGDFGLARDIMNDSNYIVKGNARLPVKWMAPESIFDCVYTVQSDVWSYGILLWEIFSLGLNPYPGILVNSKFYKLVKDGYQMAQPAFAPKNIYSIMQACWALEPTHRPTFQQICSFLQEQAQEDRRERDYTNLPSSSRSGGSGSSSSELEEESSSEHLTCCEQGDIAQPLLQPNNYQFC

IC50	Structure (SMILES)
1.9 nM	CONC(=O)c1cn(C2CCCC2)c2nc(Nc3ccc(C4CCNCC4)cc3)ncc2c1=O [Cpd 45, 8-cyclopentyl-5-oxo-2-(4-piperidin-4-yl-phenylamino)-5,8-dihydro-pyrido[2,3-d]pyrimidine-6-carboxylic acid methoxy-amide]
6.3 nM	CONC(=O)c1cn(-c2ccc3c(c2)CCC3)c2nc(Nc3cccc(C(=O)NCCN4CCCC4)c3)ncc2c1=O [Cpd 192, 8-indan-5-yl-5-oxo-2-[3-(2-pyrrolidin-1-yl-ethylcarbamoyl)-phenylamino]-5,8-dihydro-pyrido[2,3-d]pyrimidine-6-carboxylic acid methoxy-amide]
7.2 nM	CCc1ccc(-n2cc(C(=O)NOC)c(=O)c3cnc(Nc4ccc(CC(=O)O)cc4)nc32)cc1 [Cpd 103, {4-[8-(4-ethyl-phenyl)-6-methoxycarbamoyl-5-oxo-5,8-dihydro-pyrido[2,3-d]pyrimidin-2-ylamino]-phenyl}-acetic acid]
0.57 nM	CCc1ccc(-n2cc(C(=O)NOC)c(=O)c3cnc(Nc4ccc(CCN5CC(F)C5)cc4)nc32)cc1 [Cpd 265, 8-(4-ethyl-phenyl)-2-{4-[2-(3-fluoro-azetidin-1-yl)-ethyl]-phenylamino}-5-oxo-5,8-dihydro-pyrido[2,3-d]pyrimidine-6-carboxylic acid methoxy-amide]
1.6 nM	CONC(=O)c1cn(C2CCCCC2)c2nc(Nc3ccc(CCN4CCCC4=O)cc3)ncc2c1=O [Cpd 13, 8-cyclohexyl-5-oxo-2-{4-[2-(2-oxo-pyrrolidin-1-yl)-ethyl]-phenylamino}-5,8-dihydro-pyrido[2,3-d]pyrimidine-6-carboxylic acid methoxy-amide]
1.1 nM	CCc1ccc(-n2cc(C(=O)NOC)c(=O)c3cnc(Nc4ccc(CCN5CCN(C)CC5)cc4)nc32)cc1 [Cpd 56, 8-(4-ethyl-phenyl)-2-{4-[2-(4-methyl-piperazin-1-yl)-ethyl]-phenylamino}-5-oxo-5,8-dihydro-pyrido[2,3-d]pyrimidine-6-carboxylic acid methoxy-amide]
0.6 nM	CCc1ccc(-n2cc(C(=O)NOC)c(=O)c3cnc(Nc4ccc(C5CCN(CCCO)CC5)cc4)nc32)cc1 [Cpd 185, 8-(4-ethyl-phenyl)-2-{4-[1-(3-hydroxy-propyl)-piperidin-4-yl]-phenylamino}-5-oxo-5,8-dihydro-pyrido[2,3-d]pyrimidine-6-carboxylic acid methoxy-amide]
0.75 nM	CONC(=O)c1cn(-c2ccc3c(c2)CCC3)c2nc(Nc3ccc(CCN4CCN(C)C(=O)C4)cc3)ncc2c1=O [Cpd 220, 8-indan-5-yl-2-{4-[2-(4-methyl-3-oxo-piperazin-1-yl)-ethyl]-phenylamino}-5-oxo-5,8-dihydro-pyrido[2,3-d]pyrimidine-6-carboxylic acid methoxy-amide]
4.9 nM	CCc1ccc(-n2cc(C(=O)NOC3CCCC3)c(=O)c3cnc(Nc4ccc(CCN5CCN(C)CC5)cc4)nc32)cc1 [Cpd 92, 8-(4-ethyl-phenyl)-2-{4-[2-(4-methyl-piperazin-1-yl)-ethyl]-phenylamino}-5-oxo-5,8-dihydro-pyrido[2,3-d]pyrimidine-6-carboxylic acid cyclopentyloxy-amide]
0.5 nM	CONC(=O)c1cn(-c2ccc3c(c2)CCC3)c2nc(Nc3cccc(N4CCOCC4)c3)ncc2c1=O [Cpd 325, 8-indan-5-yl-2-(3-morpholin-4-yl-phenylamino)-5-oxo-5,8-dihydro-pyrido[2,3-d]pyrimidine-6-carboxylic acid methoxy-amide]
5.3 nM	CCc1ccc(-n2cc(C(=O)NOC)c(=O)c3cnc(Nc4ccc(OC5CCN(CC(F)(F)F)CC5)cc4)nc32)cc1 [Cpd 318, 8-(4-ethyl-phenyl)-5-oxo-2-{4-[1-(2,2,2-trifluoro-ethyl)-piperidin-4-yloxy]-phenylamino}-5,8-dihydro-pyrido[2,3-d]pyrimidine-6-carboxylic acid methoxy-amide]
2.1 nM	CONC(=O)c1cn(C2CCCCC2)c2nc(Nc3ccc(N4CCCC4)cc3)ncc2c1=O [Cpd 10, 8-cyclohexyl-5-oxo-2-(4-pyrrolidin-1-yl-phenylamino)-5,8-dihydro-pyrido[2,3-d]pyrimidine-6-carboxylic acid methoxy-amide]
1.8 nM	CCc1ccc(-n2cc(C(=O)NOC)c(=O)c3cnc(Nc4ccccc4)nc32)cc1 [Cpd 316, 8-(4-ethyl-phenyl)-5-oxo-2-phenylamino-5,8-dihydro-pyrido[2,3-d]pyrimidine-6-carboxylic acid methoxy-amide]
1 nM	CONC(=O)c1cn(-c2ccc3c(c2)CCC3)c2nc(Nc3cccc(CCN4CCS(=O)(=O)CC4)c3)ncc2c1=O [Cpd 205, 2-{3-[2-(1,1-dioxo-1λ^6-thiomorpholin-4-yl)-ethyl]-phenylamino}-8-indan-5-yl-5-oxo-5,8-dihydro-pyrido[2,3-d]pyrimidine-6-carboxylic acid methoxy-amide]
1.1 nM	CONC(=O)c1cn(-c2ccc3c(c2)CCC3)c2nc(Nc3ccc(CN4CCN(C)CC4)cc3)ncc2c1=O [Cpd 128, 8-indan-5-yl-2-[4-(4-methyl-piperazin-1-ylmethyl)-phenylamino]-5-oxo-5,8-dihydro-pyrido[2,3-d]pyrimidine-6-carboxylic acid methoxy-amide]
1 nM	CCONC(=O)c1cn(C2CCCCC2)c2nc(Nc3ccc(CCN4CCOCC4)cc3)ncc2c1=O [Cpd 21, 8-cyclohexyl-2-[4-(2-morpholin-4-yl-ethyl)-phenylamino]-5-oxo-5,8-dihydro-pyrido[2,3-d]pyrimidine-6-carboxylic acid ethoxy-amide]
7.3 nM	CONC(=O)c1cn(-c2ccc3c(c2)CCC3)c2nc(Nc3ccc(S(=O)(=O)N4CCN(C)CC4)cc3)ncc2c1=O [Cpd 154, 8-indan-5-yl-2-[4-(4-methyl-piperazine-1-sulfonyl)-phenylamino]-5-oxo-5,8-dihydro-pyrido[2,3-d]pyrimidine-6-carboxylic acid methoxy-amide]
1.7 nM	CONC(=O)c1cn(-c2ccc3c(c2)CCC3)c2nc(Nc3ccc(N4CCC[C@H]4CO)cc3)ncc2c1=O [Cpd 7, (S)-2-[4-(2-hydroxymethyl-pyrrolidin-1-yl)-phenylamino]-8-indan-5-yl-5-oxo-5,8-dihydro-pyrido[2,3-d]pyrimidine-6-carboxylic acid methoxy-amide]
0.6 nM	CCONC(=O)c1cn(-c2ccc(CC)cc2)c2nc(Nc3ccc(CCN4CCN(C)CC4)cc3)ncc2c1=O [Cpd 57, 8-(4-ethyl-phenyl)-2-{4-[2-(4-methyl-piperazin-1-yl)-ethyl]-phenylamino}-5-oxo-5,8-dihydro-pyrido[2,3-d]pyrimidine-6-carboxylic acid ethoxy-amide]
1.4 nM	CONC(=O)c1cn(C2CCCCC2)c2nc(Nc3ccc(C4CCNCC4)cc3)ncc2c1=O [Cpd 26, 8-cyclohexyl-5-oxo-2-(4-piperidin-4-yl-phenylamino)-5,8-dihydro-pyrido[2,3-d]pyrimidine-6-carboxylic acid methoxy-amide]
1.1 nM	CONC(=O)c1cn(-c2ccc3c(c2)CCC3)c2nc(Nc3ccc(CCN4CCC[C@@H]4C(=O)O)cc3)ncc2c1=O [Cpd 109, (R)-1-{2-[4-(8-indan-5-yl-6-methoxycarbamoyl-5-oxo-5,8-dihydro-pyrido[2,3-d]pyrimidin-2-ylamino)-phenyl]-ethyl}-pyrrolidine-2-carboxylic acid]
0.9 nM	CCc1ccc(-n2cc(C(=O)NOC(C)C)c(=O)c3cnc(Nc4ccc(C5CCN(CCO)CC5)cc4)nc32)cc1 [Cpd 184, 8-(4-ethyl-phenyl)-2-{4-[1-(2-hydroxy-ethyl)-piperidin-4-yl]-phenylamino}-5-oxo-5,8-dihydro-pyrido[2,3-d]pyrimidine-6-carboxylic acid isopropoxy-amide]
0.38 nM	CONC(=O)c1cn(-c2ccc3c(c2)CCC3)c2nc(Nc3ccc(C4CCCCN4)cc3)ncc2c1=O (stereo not shown) [Cpd 246, 8-indan-5-yl-5-oxo-2-(4-piperidin-2-yl-phenylamino)-5,8-dihydro-pyrido[2,3-d]pyrimidine-6-carboxylic acid methoxy-amide]
0.3 nM	CONC(=O)c1cn(-c2ccc3c(c2)CCC3)c2nc(Nc3ccc(OC4CCNCC4)cc3)ncc2c1=O [Cpd 311, 8-indan-5-yl-5-oxo-2-[4-(piperidin-4-yloxy)-phenylamino]-5,8-dihydro-pyrido[2,3-d]pyrimidine-6-carboxylic acid methoxy-amide]
0.72 nM	CCc1ccc(-n2cc(C(=O)NOC)c(=O)c3cnc(Nc4ccc(CCN5CCCC(F)(F)C5)cc4)nc32)cc1 [Cpd 232, 2-{4-[2-(3,3-difluoro-piperidin-1-yl)-ethyl]-phenylamino}-8-(4-ethyl-phenyl)-5-oxo-5,8-dihydro-pyrido[2,3-d]pyrimidine-6-carboxylic acid methoxy-amide]
0.68 nM	CN1CCN(CCc2ccc(Nc3ncc4c(=O)c(C(=O)NCCO)cn(-c5ccc6c(c5)CCC6)c4n3)cc2)CC1 [Cpd 65, 8-indan-5-yl-2-{4-[2-(4-methyl-piperazin-1-yl)-ethyl]-phenylamino}-5-oxo-5,8-dihydro-pyrido[2,3-d]pyrimidine-6-carboxylic acid (2-hydroxy-ethyl)-amide]
0.96 nM	CONC(=O)c1cn(-c2ccc3c(c2)CCC3)c2nc(Nc3cccc(N4CC(C)NC(C)C4)c3)ncc2c1=O (stereo not shown) [Cpd 195, 2-[3-(3,5-dimethyl-piperazin-1-yl)-phenylamino]-8-indan-5-yl-5-oxo-5,8-dihydro-pyrido[2,3-d]pyrimidine-6-carboxylic acid methoxy-amide]

Structure (SMILES)	IC50
CCc1ccc(-n2cc(C(=O)NOC)c(=O)c3cnc(Nc4ccc(OC5CN6CCC5CC6)cc4)nc32)cc1 (stereo not shown) [Cpd 268, 2-[4-(1-aza-bicyclo[2.2.2]oct-3-yloxy)-phenylamino]-8-(4-ethyl-phenyl)-5-oxo-5,8-dihydro-pyrido[2,3-d]pyrimidine-6-carboxylic acid methoxy-amide]	0.4 nM
